The record followed here is ChEMBL document CHEMBL5252532, “Oxindole: A chemical prism carrying plethora of therapeutic benefits” (Eur J Med Chem, 2016).

Experiment [1] has as its target Cyclin-dependent kinase 2 (Homo sapiens, UniProt P24941). Description: Inhibition of human CDK2 […]-Pro-Met-Ser-Pro-Lys-LysLys-Ala-CONH2 peptide as substrate incubated for 30 to 60 mins by scintillation counter analysis.
The target in experiment [2] is Cyclin-dependent kinase 1 (Homo sapiens, UniProt P06493). The experiment is described as follows: Inhibition of human CDK1 using Biotinaminohexyl-Ala-Arg-Arg-Pro-Met-Ser-Pro-Lys-LysLys-Ala-CONH2 peptide as substrate incubated for 20 to 30 mins by scintillation counter analysis.
Experiment [3] addresses Aldo-keto reductase family 1 member B1 (Homo sapiens, UniProt P15121). The experiment is described as follows: Inhibition of AR (unknown origin) assessed as glycation activity.
The subject of experiment [4] is MDA-MB-435. Description: Anticancer activity against human MDA-MB-435 cells assessed as cell growth inhibition by MTT assay. The format is functional, cell-based. Background: Formazan colour is commonly taken as a measure of viable cells.
The test system of experiment [5] is RKO. Description: Anticancer activity against human RKO cells assessed as cell growth inhibition by MTT assay. The format is functional, cell-based.
Experiment [6] deals with High affinity nerve growth factor receptor (Homo sapiens, UniProt P04629). Description: Inhibition of TrkA (unknown origin).
For experiment [7], the system named is Staphylococcus aureus. The experiment is described as follows: Antibacterial activity against Staphylococcus aureus assessed as bacterial growth inhibition. The format is functional.
Experiment [8] concerns Escherichia coli. Description: Antibacterial activity against Escherichia coli assessed as bacterial growth inhibition. The format is functional.
Experiment [9] is filed under the species Homo sapiens. The experiment is described as follows: Inhibition of ERK (unknown origin) at 100 uM by western blot assay relative to control.
Experiment [10] addresses Vascular endothelial growth factor receptor 1 (Homo sapiens, UniProt P17948). The experiment is described as follows: Inhibition of VEGFR1 (unknown origin) in presence of ATP.
For experiment [11], the system named is MGC-803. The experiment is described as follows: Anticancer activity against human MGC-803 cells assessed as cell growth inhibition incubated for 24 hrs by MTT assay. The format is functional, cell-based. The conditions noted are these: MGC-803, 24 h.
The subject of experiment [12] is T-24. Description: Anticancer activity against human T24 cells assessed as cell growth inhibition incubated for 24 hrs by MTT assay. The following applies: T-24, 24 h. The format is functional, cell-based.
Experiment [13] concerns SK-N-BE(2). Description: Anticancer activity against human SKNBE2 cells assessed as cell growth inhibition. The format is functional, cell-based.
In experiment [14] the test system is GAMG. Description: Anticancer activity against human GAMG cells assessed as cell growth inhibition. The format is functional, cell-based.
Experiment [15] has as its system A549. The experiment is described as follows: Anticancer activity against human A549 cells assessed as cell growth inhibition. The format is functional, cell-based.
In experiment [16] the test system is Mycobacterium tuberculosis. The experiment is described as follows: Antitubercular activity against Mycobacterium tuberculosis H37Rv strain assessed as bacterial growth inhibition. The format is functional.
The test system of experiment [17] is Streptococcus pyogenes. The experiment is described as follows: Antibacterial activity against Streptococcus pyogenes assessed as bacterial growth inhibition. The format is functional.
Experiment [18] relates to Pseudomonas aeruginosa. Description: Antibacterial activity against Pseudomonas aeruginosa assessed as bacterial growth inhibition. The format is functional.
Experiment [19] relates to MCF7. The experiment is described as follows: Growth inhibition of human MCF7 cells. The format is functional.

In general, IC50 refers to the point on the concentration scale where inhibition reaches its midpoint. Usually inhibition stands for the change of the read-out against control, counted positive when it falls. A lower inhibition goes with a weak effect. The GI50 is the concentration giving 50% growth inhibition.

≈ marks a conversion by molar mass, not a printed value.

Chain of Cyclin-dependent kinase 1 (P06493 whole entry): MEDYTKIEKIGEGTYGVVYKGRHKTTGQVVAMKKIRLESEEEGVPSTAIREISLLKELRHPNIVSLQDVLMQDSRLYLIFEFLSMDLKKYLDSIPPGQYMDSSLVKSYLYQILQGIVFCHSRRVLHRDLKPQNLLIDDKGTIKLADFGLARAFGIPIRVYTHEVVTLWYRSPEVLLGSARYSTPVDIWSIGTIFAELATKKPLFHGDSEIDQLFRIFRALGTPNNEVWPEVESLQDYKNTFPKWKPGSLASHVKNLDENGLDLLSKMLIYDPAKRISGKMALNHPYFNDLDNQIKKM
Chain of High affinity nerve growth factor receptor (P04629 whole entry): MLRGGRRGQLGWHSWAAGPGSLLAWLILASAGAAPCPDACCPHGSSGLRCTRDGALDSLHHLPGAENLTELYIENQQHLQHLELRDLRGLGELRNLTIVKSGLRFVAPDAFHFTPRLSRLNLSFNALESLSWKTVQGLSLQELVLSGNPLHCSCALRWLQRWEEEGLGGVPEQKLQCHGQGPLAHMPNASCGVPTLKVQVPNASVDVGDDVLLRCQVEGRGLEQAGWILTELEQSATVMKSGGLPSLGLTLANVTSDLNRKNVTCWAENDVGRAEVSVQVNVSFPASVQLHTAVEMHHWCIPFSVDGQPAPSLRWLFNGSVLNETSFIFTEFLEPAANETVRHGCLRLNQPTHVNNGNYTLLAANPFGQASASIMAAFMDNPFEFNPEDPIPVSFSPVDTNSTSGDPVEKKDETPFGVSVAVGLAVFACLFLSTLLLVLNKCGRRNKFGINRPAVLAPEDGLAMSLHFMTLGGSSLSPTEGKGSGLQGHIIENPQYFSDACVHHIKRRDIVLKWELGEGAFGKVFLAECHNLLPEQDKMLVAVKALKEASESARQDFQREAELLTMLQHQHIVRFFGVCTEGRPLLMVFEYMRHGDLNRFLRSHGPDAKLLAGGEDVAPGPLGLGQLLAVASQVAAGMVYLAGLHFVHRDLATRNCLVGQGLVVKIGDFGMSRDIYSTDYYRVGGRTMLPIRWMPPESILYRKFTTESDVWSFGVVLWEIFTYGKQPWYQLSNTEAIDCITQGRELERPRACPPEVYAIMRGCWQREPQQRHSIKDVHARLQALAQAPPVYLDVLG
Chain of Vascular endothelial growth factor receptor 1 (P17948 whole entry): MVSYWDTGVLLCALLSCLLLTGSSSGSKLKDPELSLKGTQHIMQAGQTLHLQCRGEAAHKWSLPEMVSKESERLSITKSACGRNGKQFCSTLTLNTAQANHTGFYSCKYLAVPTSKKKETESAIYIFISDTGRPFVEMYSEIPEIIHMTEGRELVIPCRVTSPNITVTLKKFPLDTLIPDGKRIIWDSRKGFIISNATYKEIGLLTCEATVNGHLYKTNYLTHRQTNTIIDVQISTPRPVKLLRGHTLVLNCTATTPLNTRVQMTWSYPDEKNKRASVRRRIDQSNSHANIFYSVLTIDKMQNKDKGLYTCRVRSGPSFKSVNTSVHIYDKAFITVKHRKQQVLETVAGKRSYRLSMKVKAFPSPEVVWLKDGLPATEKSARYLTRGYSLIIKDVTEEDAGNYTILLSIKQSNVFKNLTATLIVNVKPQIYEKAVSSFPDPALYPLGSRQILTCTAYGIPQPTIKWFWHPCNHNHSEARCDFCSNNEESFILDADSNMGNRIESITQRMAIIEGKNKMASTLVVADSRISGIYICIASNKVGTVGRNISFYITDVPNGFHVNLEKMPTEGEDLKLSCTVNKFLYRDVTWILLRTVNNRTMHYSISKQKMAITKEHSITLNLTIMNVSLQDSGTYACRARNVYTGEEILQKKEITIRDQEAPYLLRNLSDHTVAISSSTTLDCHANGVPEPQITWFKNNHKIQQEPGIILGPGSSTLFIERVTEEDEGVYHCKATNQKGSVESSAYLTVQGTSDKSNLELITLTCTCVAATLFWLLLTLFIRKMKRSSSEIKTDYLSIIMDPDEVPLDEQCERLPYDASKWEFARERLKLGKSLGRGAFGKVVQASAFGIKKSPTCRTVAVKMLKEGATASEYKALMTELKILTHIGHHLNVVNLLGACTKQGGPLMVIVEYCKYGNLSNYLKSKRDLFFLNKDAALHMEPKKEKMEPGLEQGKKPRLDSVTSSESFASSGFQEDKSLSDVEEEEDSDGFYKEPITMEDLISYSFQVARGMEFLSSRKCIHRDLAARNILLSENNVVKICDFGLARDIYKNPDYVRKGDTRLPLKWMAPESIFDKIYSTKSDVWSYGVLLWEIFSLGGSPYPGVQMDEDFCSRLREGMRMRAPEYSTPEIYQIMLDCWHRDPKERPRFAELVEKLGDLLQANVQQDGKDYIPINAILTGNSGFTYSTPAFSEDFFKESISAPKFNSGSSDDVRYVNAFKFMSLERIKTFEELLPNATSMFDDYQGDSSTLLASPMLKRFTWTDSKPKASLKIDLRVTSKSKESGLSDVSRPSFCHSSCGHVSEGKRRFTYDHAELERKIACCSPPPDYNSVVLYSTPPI

`O=C1Nc2ccc3ncsc3c2/C1=C/Nc1ccc(S(=O)(=O)NCCOCCO)cc1`: the IC50 in experiment [1] came out at 0.012 µM; in experiment [2] it was 0.00054 µM.

For the molecule `Cc1ccc(O)c(/C=C2\C(=O)Nc3ccccc32)c1`, the half-inhibitory concentration (IC50) in [3] amounted to 195 µM.

As to `COc1cc[nH]c1/C=C1\C(=O)Nc2ccc([N+](=O)[O-])c(N3CC[C@@H](N)C3)c21`, the IC50 in [4] and in experiment [5] was less than 10 µM throughout.

In experiment [6], `O=C1Nc2ccccc2/C1=C/Nc1ccc(-n2nccn2)cc1` gave an IC50 of 0.008 µM.

Consider `CC1(C)CC(=O)C2=C(C1)NC(=S)NC21C(=O)Nc2ccc(Br)cc21` (stereo unspecified), for which the MIC in experiment [7] and in [8] was 500 µg in each case.

As for `O=C1Nc2ccccc2C1=O`, the inhibition in [9] is 35%.

`Cc1cc(CCC(=O)O)c(/C=C2\C(=O)Nc3ccccc32)[nH]1`: the IC50 in experiment [10] was determined as 0.096 µM.

On to `CC(=O)O[C@H]1CC[C@@]2(C)C(=CC[C@@H]3[C@@H]2CC[C@]2(C)C4=C(C#N)C(=N)OC5(C(=O)N(Cc6c(F)cccc6F)c6ccccc65)C4C[C@@H]32)C1` (stereo partly specified), for which the IC50 in experiment [11] is 8.45 µM; in experiment [12], 4.43 µM.

Take `COC(=O)C1=CO[C@@H](C)[C@H]2CN3CC[C@]4(C(=O)Nc5ccccc54)[C@@H]3C[C@H]12`: the IC50 stood at 20 µM in experiment [13] and 12.3 µM in [14].

On to `CC(=O)O[C@H]1CC[C@@]2(C)C(=CC[C@@H]3[C@@H]2CC[C@]2(C)C4=C(C#N)C(=N)OC5(C(=O)N(Cc6ccc(C)cc6)c6ccccc65)C4C[C@@H]32)C1` (stereo partly specified), for which the concentration for half-maximal inhibition (IC50) was 8.45 µM in [11] and 4.43 µM in [12].

As for `O=C1Nc2ccccc2/C1=C/c1cccc(Cl)c1`, in experiment [3], the 50% inhibitory concentration (IC50) worked out at 150 µM.

As for `O=C1Cc2cc(O)ccc2N1`, the inhibition in experiment [9] came out at 35%.

Regarding `O=C1Nc2ncccc2C12CCN(Cc1ccccc1OC(F)(F)F)CC2`, in experiment [15], the IC50 is 0.05 µM.

For `Cc1ccc(CN2C(=O)/C(=N/NC(=O)c3ccccc3)c3cc(C)ccc32)cc1`, in experiment [16], the MIC is 25 µg/mL (≈ 65.2 µM).

On to `C[C@@H]1O[C@@H](OC[C@H]2O[C@@H](Oc3c(-c4ccc(O)c(O)c4)oc4cc(O)cc(O)c4c3=O)[C@H](O)[C@@H](O)[C@@H]2O)[C@H](O)[C@H](O)[C@H]1O` [RUTIN], for which the IC50 in experiment [3] is 295 µM.

For `Cc1ccc(S(=O)(=O)N2CCN(c3ccc(/C=C4/C(=O)Nc5ccccc54)cc3)CC2)cc1`, the MIC amounted to 25 µg/mL (≈ 54.4 µM) in [17]; 25 µg/mL (≈ 54.4 µM) in experiment [7] (Staphylococcus aureus, read-out: MIC); 25 µg/mL (≈ 54.4 µM) in experiment [18]; 25 µg/mL (≈ 54.4 µM) in experiment [8] (Escherichia coli, read-out: MIC).

With `CN1C(=O)O[C@]2(C[C@H]1c1ccccc1)C(=O)Nc1ccccc12`, it took 2.6 µM to inhibit growth in [19] by half (GI50).
